One data set can be described thus: in vitro. The following applies: human.
For data set [1], the system named is influenza A/Puerto Rico/8/34 H1N1 (PR8) virus. Kind of data set: microbe, parasite or virus in culture. The format is cell-based. The following applies: for IC50: Influenza A virus, H1N1|PR8, A549, 24 h; for SI (selectivity index, ratio of the CC50 to the IC50): A549 cells, PR8.

In general, IC50 refers to the concentration that gives 50% inhibition. Higher therefore signals weaker potency in that assay.

On to `COC(=O)C(C)n1c(C)nc(C#N)c1N` (stereo not shown) [Compound 4b, Methyl 2-(5-amino-4-cyano-2-methyl-1H-imidazol-1-yl)propanoate], for which, in the data set “in vitro”, the CC50 was 2.75 µM. Also, in data set [1], the concentration for half-maximal inhibition (IC50) came to 0.76 µM.
The compound `Cc1nc(C#N)c(N)n1C(Cc1ccc(O)cc1)C(=O)O` (stereo not shown) [Compound 5f, 2-(5-Amino-4-cyano-2-methyl-1H-imidazol-1-yl)-3-(4-hydroxyphenyl)propanoic acid] yielded a CC50 in “in vitro” of 0.9 µM. Also, in data set [1], the “SI (selectivity index, ratio of the CC50 to the IC50)” value was found to be 0.45 and half-maximal inhibition (IC50) required 1.99 µM.
`COC(=O)C(CO)n1c(C)nc(C#N)c1N` (stereo not shown) [Compound 4d, Methyl 2-(5-amino-4-cyano-2-methyl-1H-imidazol-1-yl)-3-hydroxypropanoate] displayed a CC50 in “in vitro” of 1.99 µM. This compound gave an IC50 in data set [1] of 0.68 µM.
`Cc1nc(C#N)c(N)n1CC(=O)O` [Compound 5a, 2-(5-Amino-4-cyano-2-methyl-1H-imidazol-1-yl)acetic acid] came in with a CC50 in “in vitro” of 2.2 µM. Besides, in data set [1], the “expression of HA on infected monolayers (RFU % vs untreated infected cells)” value is “decreased” and the IC50 was 0.76 µM.
As to `COC(=O)C(Cc1ccc(O)cc1)n1c(C)nc(C#N)c1N` (stereo not shown) [Compound 4f, Methyl 2-(5-amino-4-cyano-2-methyl-1H-imidazol-1-yl)-3-(4-hydroxyphenyl)propanoate], in “in vitro”, the CC50 stood at 1.45 µM. In data set [1], the “SI (selectivity index, ratio of the CC50 to the IC50)” value is reported as 0.5 and the IC50 came to 3.2 µM.
`COC(=O)C(C)n1c(C)nc2c(=O)[nH]cnc21` (stereo not shown) [Compound 6b, Methyl 2-(8-methyl-6-oxo-1,6-dihydro-9H-purin-9-yl)propanoate] registered a CC50 in the data set “in vitro” of 0.47 µM.
In turn, `Cc1nc2c(=O)[nH]cnc2n1C(C(=O)O)C(C)C` (stereo not shown) [Compound 7c, 3-Methyl-2-(8-methyl-6-oxo-1,6-dihydro-9H-purin-9-yl)butanoic acid] registered a CC50 in “in vitro” of 1.09 µM. In data set [1], the “expression of HA on infected monolayers (RFU % vs untreated infected cells)” value is “decreased” and half-maximal inhibition (IC50) was put at 0.59 µM.
Compound `Cc1nc2c(=O)[nH]cnc2n1C(CO)C(=O)O` (stereo not shown) [Compound 7d, 3-Hydroxy-2-(8-methyl-6-oxo-1,6-dihydro-9H-purin-9-yl)propanoic acid] showed a CC50 in “in vitro” of 6.11 µM.
In “in vitro”, `COC(=O)C(CO)n1c(C)nc2c(=O)[nH]cnc21` (stereo not shown) [Compound 6d, Methyl 3-hydroxy-2-(8-methyl-6-oxo-1,6-dihydro-9H-purin-9-yl)propanoate] returned a CC50 of 0.93 µM.
Turning to `COC(=O)C(C(C)C)n1c(C)nc2c(=O)[nH]cnc21` (stereo not shown) [Compound 6c, Methyl 3-methyl-2-(8-methyl-6-oxo-1,6-dihydro-9H-purin-9-yl)butanoate], in the data set “in vitro”, the CC50 was 0.31 µM. Besides, in data set [1], the midpoint of inhibition, the IC50, lay at 0.18 µM.
In “in vitro”, `Cc1nc(C#N)c(N)n1C(Cc1ccccc1)C(=O)O` (stereo not shown) [Compound 5e, 2-(5-Amino-4-cyano-2-methyl-1H-imidazol-1-yl)-3-phenylpropanoic acid] displayed a CC50 of 3.36 µM. The same compound gave a half-inhibitory concentration (IC50) in data set [1] of 0.46 µM.
Take `Cc1nc2c(=O)[nH]cnc2n1C(Cc1ccccc1)C(=O)O` (stereo not shown) [Compound 7e, 2-(8-Methyl-6-oxo-1,6-dihydro-9H-purin-9-yl)-3-phenylpropanoic acid]: the CC50 in “in vitro” is 6.35 µM.
In turn, `COC(=O)C(Cc1ccccc1)n1c(C)nc(C#N)c1N` (stereo not shown) [Compound 4e, Methyl 2-(5-amino-4-cyano-2-methyl-1H-imidazol-1-yl)-3-phenylpropanoate] registered a CC50 in the data set “in vitro” of 0.84 µM. Moreover, in data set [1], the 50% inhibitory concentration (IC50) was 0.39 µM.
`COC(=O)Cn1c(C)nc(C#N)c1N` [Compound 4a, Methyl 2-(5-amino-4-cyano-2-methyl-1H-imidazol-1-yl)acetate]: the CC50 in “in vitro” came to 1.02 µM.
As for `Cc1nc(C#N)c(N)n1C(C(=O)O)C(C)C` (stereo not shown) [Compound 5c, 2-(5-Amino-4-cyano-2-methyl-1H-imidazol-1-yl)-3-methylbutanoic acid], the CC50 in the data set “in vitro” stood at 0.62 µM. Moreover, in data set [1], the “SI (selectivity index, ratio of the CC50 to the IC50)” value came to 0.8 and it took 0.83 µM to reach half-maximal inhibition (IC50).
Consider `COC(=O)C(C(C)C)n1c(C)nc(C#N)c1N` (stereo not shown) [Compound 4c, Methyl 2-(5-amino-4-cyano-2-methyl-1H-imidazol-1-yl)-3-methylbutanoate], for which the CC50 in “in vitro” is 1.13 µM. For the same compound, in data set [1], the “SI (selectivity index, ratio of the CC50 to the IC50)” value is 0.5 and the IC50 was 2.41 µM.
On the same counts, the results for `Cc1nc2c(=O)[nH]cnc2n1CC(=O)O` [Compound 7a, 2-(8-Methyl-6-oxo-1,6-dihydro-9H-purin-9-yl)acetic acid] are 0.75 µM, 0.84 and 0.89 µM.
In turn, `Cc1nc2c(=O)[nH]cnc2n1C(C)C(=O)O` (stereo not shown) [Compound 7b, 2-(8-Methyl-6-oxo-1,6-dihydro-9H-purin-9-yl)propanoic acid] yielded a CC50 in “in vitro” of 2.86 µM. Moreover, half-maximal inhibition in data set [1] (IC50) required 1.85 µM.
In the case of `COC(=O)C(Cc1ccc(O)cc1)n1c(C)nc2c(=O)[nH]cnc21` (stereo not shown) [Compound 6f, Methyl 3-(4-hydroxyphenyl)-2-(8-methyl-6-oxo-1,6-dihydro-9H-purin-9-yl)propanoate], the CC50 in “in vitro” amounted to 0.8 µM. The compound also returned an IC50 in data set [1] of 0.48 µM.
In “in vitro”, `Cc1nc(C#N)c(N)n1C(C)C(=O)O` (stereo not shown) [Compound 5b, 2-(5-Amino-4-cyano-2-methyl-1H-imidazol-1-yl)propanoic acid] registered a CC50 of 2.91 µM. In data set [1], the “SI (selectivity index, ratio of the CC50 to the IC50)” value was found to be 1 and the half-inhibitory concentration (IC50) turned out to be 3 µM.
Consider `COC(=O)Cn1c(C)nc2c(=O)[nH]cnc21` [Compound 6a, Methyl 2-(8-methyl-6-oxo-1,6-dihydro-9H-purin-9-yl)acetate], for which, in “in vitro”, the CC50 worked out at 2.11 µM. Besides, in data set [1], the “SI (selectivity index, ratio of the CC50 to the IC50)” value was found to be 0.3 and inhibition was half-maximal at 6.96 µM (IC50).
As to `COC(=O)C(Cc1ccccc1)n1c(C)nc2c(=O)[nH]cnc21` (stereo not shown) [Compound 6e, Methyl 2-(8-methyl-6-oxo-1,6-dihydro-9H-purin-9-yl)-3-phenylpropanoate], the CC50 in the data set “in vitro” amounted to 0.51 µM. In data set [1], the “SI (selectivity index, ratio of the CC50 to the IC50)” value is 0.3 and it took 1.87 µM to reach half-maximal inhibition (IC50).

Source of the values: publication PMC9040849 (RSC Advances, 2021).
